Experimental data reported in patent US20230330254A1 (Regeneron Pharmaceuticals, Inc., priority 2022, published 2023).
Where a SMILES comes first, the peptide text is derived from it. [ ]: non-standard residue; d: D form. The star is where a group is joined. Bip(2'-Et,4'-O(CH2)4NH2) = CCc1cc(OCCCCN)ccc1-c1ccc(C[C@H](N)C(=O)O)cc1; Nva(5-(3,5-Me2Ph)) = Cc1cc(C)cc(CCC[C@H](N)C(=O)O)c1; Ala(1H-tetrazol-5-yl) = N[C@@H](Cc1nnn[nH]1)C(=O)O; αMePhe(2-F) = C[C@](N)(Cc1ccccc1F)C(=O)O; Desaminohistidyl = O=C(CCc1c[nH]cn1)*

What was measured:
[1] = Plasma stability of payloads and linker-payloads, human plasma; type: in vitro ADME; conditions: plasma, pH 7.4, tested time C (3 days), 2 μM, 37° C., read-out: Human plasma stability assay T½ (converted)
Method: The plasma stability of payloads and linker payloads of the disclosure were measured. For the assay, pooled frozen plasma (human, mouse or monkey) was thawed in cold water or a 37° C. water bath prior to experiment. Plasma was centrifuged at 4000 rpm for 5 min if any clots were observed, they were subsequently removed. If required, the pH was adjusted to 7.4±0.1. For the preparation of compounds and positive controls, a 1 mM intermediate solution was prepared by diluting 10 μL of their stock solution with 90 μL DMSO; a 1 mM intermediate solution of the positive control (Propantheline) was prepared by diluting 10 μL of its stock solution with 90 μL ultrapure water. […] 98 μL of plasma was spiked with 2 μL of dosing solution (100 μM) to achieve the final concentration of 2 μM in duplicate. Samples were then incubated at 37° C. in a water bath. […] At each time point, 400 μL of stop solution (200 ng/mL tolbutamide plus 200 ng/mL labetalol in 50% ACN/MeOH) was added to precipitate protein and mixed thoroughly. Sample plates were then centrifuged at 4,000 rpm for 10 min. An aliquot of supernatant (50 μL) was transferred from each well and mixed with 100 μL ultrapure water. The samples were then shaken at 800 rpm for approximately 10 min before submitting for LC-MS/MS analysis.

human GLP1R [2] = molecular target: T1, human GLP1R (Homo sapiens, UniProt P43220); test: Luciferase reporter assay, HEK293/CRE-Luc/hGLP1R cells (Example 11); type: cell-based; parameters: engineered to express full-length human GLP1R, cynomolgus GLP1R; expressed in transfected cells; host or cells: HEK293/CRE-Luc; conditions: Table 11; Experiment A
Description: (§1) To test the activity of GLP1R agonist payloads, GLP1R agonist linker-payloads (LPs), and anti-GLP1R antibody tethered drug conjugates (ATDCs) of the disclosure, a cell-based cAMP responsive luciferase reporter assay was developed. To generate the assay cell line, the firefly luciferase gene was placed under the control of a cAMP response element (CRE) located upstream of a minimal promoter and transfected into HEK293 cells and referred to herein as HEK293/CRE-Luc cells.
(§2) Three-fold serial dilutions of free payloads or LPs were prepared in 100% DMSO, transferred to fresh assay media, and added to the cells at a final constant DMSO concentration of 0.2%. The last well in the plate served as a blank control containing only the assay media and 0.2% DMSO (untreated well) and was plotted as a continuation of the 3-fold serial dilution. Four to six hours later, luciferase activity was determined after the addition of One-Glo™ reagent (Promega, Cat #E6130) to each well. Relative light units (RLUs) were measured on an Envision luminometer (PerkinElmer) and EC50 values were determined using a four-parameter logistic equation over a 12-point dose response curve (GraphPad Prism). The signal to noise (S/N) was determined by taking the ratio of the highest RLU on the dose response curve to the RLU in the untreated wells.
GLP1R agonist linker payloads were conjugated to anti-hGLP1R antibodies via N-terminal heavy or light chain Q tags. Several resulting anti-GLP1R antibody tethered drug conjugates (ATDCs) were tested for activity in the HEK293/CRE-Luc/hGLP1R reporter assay as described above for the free GLP1R payload and linker-payload agonists.

HEK293/CRE-Luc cells [3] = test: Luciferase reporter assay, HEK293/CRE-Luc cells without hGLP1R (Example 11); type: cell-based, human; conditions: Table 11; Experiment A; no hGLP1R expression
Description: as §1, §2

HEK293/CRE-Luc cells [4] = test: Luciferase reporter assay, HEK293/CRE-Luc cells without GLP1R (Example 17); type: cell-based, human; conditions: HEK293/CRE-Luc cells without hGLP1R, payloads and linker-payloads; for EC50: read-out: EC50
Summary of the method: (§3)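 HEK293 cells carrying a CRE-driven firefly luciferase reporter were exposed to 3-fold serial dilutions of payloads or linker-payloads (12 points, 0.2% DMSO final) for 4–6 h, then luminescence was read. EC50 came from a four-parameter logistic fit; S/N is top RLU over untreated wells, and relative potency and S/N are referenced to M2361.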

human GLP1R [5] = molecular target: T1, human GLP1R; test: Luciferase reporter assay, HEK293/CRE-Luc/hGLP1R (Example 17); type: cell-based; parameters: engineered to express full-length human GLP1R, cynomolgus GLP1R; expressed in transfected cells; host or cells: HEK293/CRE-Luc; conditions: HEK293/CRE-Luc/hGLP1R; for S/N: highest RLU / RLU of untreated wells; for Relative Potency (% M2361 EC50) / Relative Signal:Noise (% M2361): relative to M2361 of the same experiment
Summary of the method: as §3

human GLP1R [6] = molecular target: T1, human GLP1R; test: Human GLP1R cAMP accumulation assay; type: cell-based; parameters: HEK293 cells over-expressing full length human GLP-1R were utilized; expressed in transfected cells; host or cells: HEK293 (HEK293/hGLP1R); conditions: HEK293/hGLP1R cells; Table 4; read-out: cAMP EC50
Method: 8.1 Human GLP1R cAMP Accumulation Assay (Cyclic AMP Determination)
The functional activity of the test compounds for agonizing GLP1R were evaluated using a cell-based assay. For the assay, HEK293 cells over-expressing full length human GLP-1R were utilized and the downstream cAMP accumulation was assessed as a measure of human GLP-1R stimulation. […] Diluted compounds were transferred to OptiPlates (100 nL/well) using an Echo liquid handler. HEK293/hGLP1R cells were thawed in 37° C. water-bath, washed 2 times with HBSS and re-suspended in assay buffer (HBSS+5 mM HEPES+500 μM IBMX+0.1% BSA). […] After centrifugation, the assay plate was incubated at 23° C. for 30 min. The reaction was terminated by adding 10 μL of lysis buffer containing D2-cAMP and a cAMP-antibody from the cyclic AMP immunoassay kit (Cisbio, Cat #62AM4PEJ). […] The levels of cAMP per well were calculated using a standard curve generated by GraphPad Prism. Percent activity was calculated according to the formula (% Activity=100%*(cAMP level-LC)/(HC-LC)). EC50 values were fitted from a four-parameter logistic equation over a 10-point response curve (GraphPad Prism).

T1 sequence (P43220 24-463): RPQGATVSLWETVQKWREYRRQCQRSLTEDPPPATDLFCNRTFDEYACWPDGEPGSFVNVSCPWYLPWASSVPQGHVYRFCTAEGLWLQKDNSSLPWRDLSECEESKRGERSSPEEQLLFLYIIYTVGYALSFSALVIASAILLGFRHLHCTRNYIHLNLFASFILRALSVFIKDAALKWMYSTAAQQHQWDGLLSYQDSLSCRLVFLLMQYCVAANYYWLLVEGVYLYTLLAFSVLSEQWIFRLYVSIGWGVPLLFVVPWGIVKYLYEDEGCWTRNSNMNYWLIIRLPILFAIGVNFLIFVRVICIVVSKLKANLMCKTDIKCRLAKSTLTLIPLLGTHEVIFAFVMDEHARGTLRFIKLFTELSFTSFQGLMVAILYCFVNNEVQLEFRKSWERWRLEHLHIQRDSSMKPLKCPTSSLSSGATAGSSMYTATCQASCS

| Structure (SMILES) | half-life at 2 µM [1] [h] | HEK293/CRE-LUC/hGLP1R Relative Potency (% P8 EC50) (human GLP1R [2]) [%] | HEK293/CRE-LUC/hGLP1R S/N (human GLP1R [2]) | EC50 (HEK293/CRE-Luc cells [3]) [pM] | HEK293/CRE-LUC S/N (HEK293/CRE-Luc cells [3]) | S/N (HEK293/CRE-Luc cells [4]) | EC50 (HEK293/CRE-Luc cells [4]) [pM] | S/N (human GLP1R [5]) | Relative Potency (% M2361 EC50) (human GLP1R [5]) [%] | Relative Signal:Noise (% M2361) (human GLP1R [5]) [%] | EC50 (human GLP1R [6]) [pM] | EC50 (human GLP1R [2]) [pM] | EC50 (human GLP1R [5]; payloads and linker-payloads, experiments A-E, M2361 repeated in each, read-out: EC50) [pM] |
| --- | --- | --- | --- | --- | --- | --- | --- | --- | --- | --- | --- | --- | --- |
| CCc1cc(OCCCCn2cc(COCCOCCOCCOCCOCCOCCOCCOCCNC(=O)CCC(=O)N3Cc4ccccc4-c4nn[nH]c4-c4ccccc43)nn2)ccc1-c1ccc(C[C@H](NC(=O)[C@H](CC(=O)O)NC(=O)[C@H](CO)NC(=O)[C@@H](NC(=O)C(C)(Cc2ccccc2F)NC(=O)[C@@H](NC(=O)CNC(=O)[C@H](Cc2nn[nH]n2)NC(=O)C(C)(C)C(=O)NCCc2cnc[nH]2)[C@@H](C)O)[C@@H](C)O)C(=O)N[C@@H](CCCc2cc(C)cc(C)c2)C(N)=O)cc1 (some centres unmarked) [LP28, triazole-DIBAC-suc-PEG8-triazole-P8] | > 173 |  |  |  |  |  |  |  |  |  |  |  |  |
| CCc1cc(OCCCCN)ccc1-c1ccc(C[C@H](NC(=O)[C@H](CC(=O)O)NC(=O)[C@H](CO)NC(=O)[C@@H](NC(=O)[C@](C)(Cc2ccccc2F)NC(=O)[C@@H](NC(=O)CNC(=O)[C@H](Cc2nn[nH]n2)NC(=O)CNC(=O)CCc2cnc[nH]2)[C@@H](C)O)[C@@H](C)O)C(=O)N[C@@H](CCCc2cc(C)cc(C)c2)C(N)=O)cc1 [P12] (Desaminohistidyl-G[Ala(1H-tetrazol-5-yl)]GT[αMePhe(2-F)]TSD[Bip(2'-Et,4'-O(CH2)4NH2)][Nva(5-(3,5-Me2Ph))]-NH2) |  | 46.5 | 76.4 | > 200000 | 1.2 | 1.2 | > 200000 | 76.4 | 46.5 | 116.2 |  |  |  |
| CCc1cc(OCCCCN)ccc1-c1ccc(C[C@H](NC(=O)[C@H](CC(=O)O)NC(=O)[C@H](CO)NC(=O)[C@@H](NC(=O)[C@](C)(Cc2ccccc2F)NC(=O)[C@@H](NC(=O)CNC(=O)[C@H](Cc2nn[nH]n2)NC(=O)[C@@]2(C)CCN(CCc3cnc[nH]3)C2=O)[C@@H](C)O)[C@@H](C)O)C(=O)N[C@@H](CCCc2cc(C)cc(C)c2)C(N)=O)cc1 [P15-R] |  | 40.3 | 67.8 | > 200000 | 1.1 |  |  |  |  |  | 117 | 13.2 |  |
| CCc1cc(OCCCCN)ccc1-c1ccc(C[C@H](NC(=O)[C@H](CC(=O)O)NC(=O)[C@H](CO)NC(=O)[C@@H](NC(=O)[C@](C)(Cc2ccccc2F)NC(=O)[C@@H](NC(=O)CNC(=O)[C@H](Cc2nn[nH]n2)NC(=O)C(C)(C)C(=O)NCCc2cnc[nH]2)[C@@H](C)O)[C@@H](C)O)C(=O)Nc2ccccc2)cc1 [P22] |  |  |  |  |  | 1.5 | > 200000 | 48.9 | 1.2 | 74.4 | 603 |  | 440 |
